{
  "source": "patent US10213436B2",
  "about": "“Methods of treating cancer using aurora kinase inhibitors” (Millennium Pharmaceuticals, Inc., priority 2012, dated 2019)",
  "key": {"[1]": {"test_system": "cells", "settings": "cells treated with MLN8054; cited from earlier work"}, "[2]": {"settings": "mouse, in vivo"}, "[3]": {"test_system": "NCI-H69", "test": "NCI-H69 small cell lung cancer xenograft model", "method": "Procedure. […] Treatments began when tumors reached approximately 200 mm^3 following subcutaneous tumor implantation with NCI-H69 tumor fragments for all groups containing 10 female immunocompromised nu/nu mice per group. MLN8237 was tested at a dose of 20 mg/kg administered PO on a QIDx21-Q8Hx2 schedule and at doses of 20 and 10 mg/kg on a QIDx21 schedule. Paclitaxel was tested at doses of 30 and 15 mg/kg administered IV on a Q7Dx3 schedule. Each paclitaxel dose was combined with each MLN8237 dose on the QDx21 treatment schedule. In the combination treatment groups MLN8237 was administered first to the animals, followed immediately by the administration of paclitaxel. One group served as a vehicle-treated control group receiving PO treatment with the MLN8237 vehicle on a QIDx21 schedule."}, "[4]": {"test_system": "NCI-H82", "test": "NCI-H82 small cell lung cancer xenograft model"}, "[5]": {"test": "Single agent maximum tolerated dose in mice"}},
  "note": "Like-named read-outs stand apart in the source and are kept apart here.",
  "data": [
    {"smiles": "O=C(O)c1ccc(Nc2ncc3c(n2)-c2ccc(Cl)cc2C(c2c(F)cccc2F)=NC3)cc1", "note": "[MLN8054]", "values": [
      {"measurement": "cell fate after repeated defective mitotic divisions", "setting": "[1]", "value": "undergo senescence"},
      {"measurement": "chromosome content of treated cells", "setting": "[1]", "value": "develop aneuploidy that increases over time"}
    ]},
    {"smiles": "COc1cc(Nc2ncc3c(n2)-c2ccc(Cl)cc2C(c2c(F)cccc2OC)=NC3)ccc1C(=O)[O-].O.[Na+]", "note": "[alisertib, sodium 4-{[9-chloro-7-(2-fluoro-6-methoxyphenyl)-5H-pyrimido[5,4-d][2]benzazepin-2-yl]amino}-2-methoxybenzoate monohydrate]", "values": [
      {"measurement": "single agent maximum tolerated dose in mice", "setting": "[2]", "value": 20, "unit": "mg/kg BID"},
      {"measurement": "antitumor activity", "setting": "[3]; single agent alisertib 20 mg/kg BID (maximum tolerated dose)", "value": "prolonged regressions"},
      {"measurement": "antitumor activity", "setting": "[4]; single agent alisertib 10 mg/kg QD", "value": "no antitumor activity"}
    ]},
    {"smiles": "CC(=O)O[C@H]1C(=O)[C@@]2(C)[C@H]([C@H](OC(=O)c3ccccc3)[C@]3(O)C[C@H](OC(=O)[C@H](O)[C@@H](NC(=O)c4ccccc4)c4ccccc4)C(C)=C1C3(C)C)[C@]1(OC(C)=O)CO[C@@H]1C[C@@H]2O", "note": "[paclitaxel]", "values": [
      {"measurement": "single agent maximum tolerated dose in mice", "setting": "[5]", "value": 30, "unit": "mg/kg QD"},
      {"measurement": "antitumor activity", "setting": "[3]; single agent paclitaxel 30 mg/kg (maximum tolerated dose)", "value": "sustained cures"},
      {"measurement": "antitumor activity", "setting": "[4]; single agent paclitaxel 15 mg/kg QW", "value": "no antitumor activity"}
    ]},
    {"smiles": "CC[C@@]1(O)C(=O)OCc2c1cc1n(c2=O)Cc2cc3c(CN(C)C)c(O)ccc3nc2-1", "note": "[topotecan]", "values": [
      {"measurement": "single agent maximum tolerated dose", "setting": "[5]; IV", "value": 1.5, "unit": "mg/kg Q5D"}
    ]}
  ]
}
